Source: paper PMC4974056, “The proposed channel-enzyme transient receptor potential melastatin 2 does not possess ADP ribose hydrolase activity” (eLife, 2016)
Values joined by “and” are separate entries in the source; they are usually repeats but may differ in a detail not shown here. Equal values may be shown once.

Legend:
T5L-TRPM2 = T5L-TRPM2 (Homo sapiens, UniProt O94759, G984L/INS985E/Y985D); assay: Excised inside-out patch-clamp recordings, ADPR-dependent channel activation; type: cell-based
Method: Oocytes isolated from anaesthetized Xenopus laevis were digested with collagenase, injected with 10–70 ng cRNA, and stored at 18°C. Recordings were done 2–3 days after injection.
The tip of the patch pipette was filled to ~1 cm height with 140 mM Na-gluconate, 2 mM Mg-gluconate2, 10 mM HEPES (pH 7.4 with NaOH); free [Ca^2+] ~4 μM. The pipette electrode was placed into a 140-mM NaCl-based solution carefully layered on top. Bath solution contained 140 mM Na-gluconate, 2 mM Mg-gluconate2, 10 mM HEPES (pH 7.1 with NaOH), and either 1 mM EGTA (to obtain 'zero' (~8 nM) Ca^2+) or 1 mM Ca-gluconate2 (to obtain 125 μM free Ca^2+) ([Csanády and Törocsik, 2009]). Na-ADPR was used at final concentrations of 0.32, 1, 3.2, 10, 32, 100, or 1000 μM, and the Na^+ salt of ε-ADPR at 100 μM. Macroscopic TRPM2 currents were recorded at 25°C at a membrane potential of −20 mV. Currents were amplified, filtered at 2 kHz (Axopatch 200B), digitized at 10 kHz (Digidata 1322A), and stored to disk (Pclamp9, Molecular Devices, Sunnyvale, CA, USA).
Dose dependence of ADPR-induced current activation, expressed as the ratio of mean macroscopic currents observed in the presence of various test [ADPR] (I) and 32 (or 100) μM ADPR (Imax) in the same patch, was fitted to the Hill equation (I/Imax = [ADPR]^n/(K^n+[ADPR]^n). Dose dependence of ADPR-activation in the presence of 100 μM ε-ADPR was expressed as the ratio of the currents observed in the presence of various test [ADPR] + 100 μM ε-ADPR (I) and 100 μM ADPR alone (Imax) in the same patch, and was fitted to the Hill equation substituting K' = K(1+[ε-ADPR]/KI) instead of K (K and n fixed to their control values). Macroscopic current decay time courses following removal of ADPR or Ca^2+ were fitted by single exponentials using the method of least squares.

Chi4S = molecular target: T1, Chi4S (Homo sapiens, UniProt O94759); assay: Ligand binding assay based on quenching of ε-ADPR fluorescence; conditions: 100 μM Chi4S, 20 mM Tris pH 8.5/100 mM NaCl, 16 mM MgCl2; assuming negligible fluorescence of bound analog; read-out: Kd (upper estimate)
T1 construct: its C-terminal cytosolic NUDT9-homology (NUDT9H) domain; made in house; host or cells: E. coli BL21 (DE3), pJ411 plasmid
Method: The ligand binding ability of purified Chi4S protein was assessed using fluorescence quenching of the ADPR analogue 1, N^6-ethenoadenosine-5’-O-diphosphoribose (ε-ADPR - BIOLOG Life Science Institute, Bremen, Germany). A 350-μl volume of 100 μM Chi4S protein in 20 mM Tris (pH 8.5)/100 mM NaCl buffer, supplemented with 16 mM MgCl2, was titrated by increasing concentrations of ε-ADPR. Fluorescence emission scans (350–700 nm) were recorded at a fixed excitation wavelength of 310 nm (Hitachi F-7000, Hitachi High Technologies, Maidenhead, UK). Fluorescence emission for ε-ADPR peaks at ~410 nm. Protein-free buffer or 100 μM bovine serum albumin (BSA; instead of Chi4S) were used as controls. Data are shown as mean ± S.D. of two independent experiments.
Dose dependence of fluorescence (Em = 420 nm) of free ε-ADPR (in buffer) was fitted by an empirical non-linear function to produce a smooth calibration curve, used to obtain upper estimates of free [ε-ADPR] in the presence of 100 μM Chi4S protein and various total [ε-ADPR], assuming negligible fluorescence for the bound, relative to the free, form of the analog. The plot of free vs. total [ε-ADPR] was fitted by the simple binding equation [ε-ADPR]free=0.5([ε-ADPR]total−[P]total−Kd+([ε-ADPR]total−[P]total−Kd)^2+4Kd[ε-ADPR]total),
where [P]total is the total concentration of Chi4S protein (100 μM), and Kd is a free parameter. […]

T1 sequence (O94759 with tags, fused parts or gaps limits assumed): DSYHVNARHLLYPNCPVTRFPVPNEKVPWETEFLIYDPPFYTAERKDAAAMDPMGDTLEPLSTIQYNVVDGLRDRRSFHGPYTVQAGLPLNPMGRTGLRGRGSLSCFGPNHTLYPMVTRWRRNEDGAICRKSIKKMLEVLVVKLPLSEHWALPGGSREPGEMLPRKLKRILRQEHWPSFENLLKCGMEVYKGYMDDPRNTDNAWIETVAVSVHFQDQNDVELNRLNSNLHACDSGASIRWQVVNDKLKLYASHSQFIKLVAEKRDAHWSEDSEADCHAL
Chain of T5L-TRPM2 (O94759 whole entry, stated change not applied): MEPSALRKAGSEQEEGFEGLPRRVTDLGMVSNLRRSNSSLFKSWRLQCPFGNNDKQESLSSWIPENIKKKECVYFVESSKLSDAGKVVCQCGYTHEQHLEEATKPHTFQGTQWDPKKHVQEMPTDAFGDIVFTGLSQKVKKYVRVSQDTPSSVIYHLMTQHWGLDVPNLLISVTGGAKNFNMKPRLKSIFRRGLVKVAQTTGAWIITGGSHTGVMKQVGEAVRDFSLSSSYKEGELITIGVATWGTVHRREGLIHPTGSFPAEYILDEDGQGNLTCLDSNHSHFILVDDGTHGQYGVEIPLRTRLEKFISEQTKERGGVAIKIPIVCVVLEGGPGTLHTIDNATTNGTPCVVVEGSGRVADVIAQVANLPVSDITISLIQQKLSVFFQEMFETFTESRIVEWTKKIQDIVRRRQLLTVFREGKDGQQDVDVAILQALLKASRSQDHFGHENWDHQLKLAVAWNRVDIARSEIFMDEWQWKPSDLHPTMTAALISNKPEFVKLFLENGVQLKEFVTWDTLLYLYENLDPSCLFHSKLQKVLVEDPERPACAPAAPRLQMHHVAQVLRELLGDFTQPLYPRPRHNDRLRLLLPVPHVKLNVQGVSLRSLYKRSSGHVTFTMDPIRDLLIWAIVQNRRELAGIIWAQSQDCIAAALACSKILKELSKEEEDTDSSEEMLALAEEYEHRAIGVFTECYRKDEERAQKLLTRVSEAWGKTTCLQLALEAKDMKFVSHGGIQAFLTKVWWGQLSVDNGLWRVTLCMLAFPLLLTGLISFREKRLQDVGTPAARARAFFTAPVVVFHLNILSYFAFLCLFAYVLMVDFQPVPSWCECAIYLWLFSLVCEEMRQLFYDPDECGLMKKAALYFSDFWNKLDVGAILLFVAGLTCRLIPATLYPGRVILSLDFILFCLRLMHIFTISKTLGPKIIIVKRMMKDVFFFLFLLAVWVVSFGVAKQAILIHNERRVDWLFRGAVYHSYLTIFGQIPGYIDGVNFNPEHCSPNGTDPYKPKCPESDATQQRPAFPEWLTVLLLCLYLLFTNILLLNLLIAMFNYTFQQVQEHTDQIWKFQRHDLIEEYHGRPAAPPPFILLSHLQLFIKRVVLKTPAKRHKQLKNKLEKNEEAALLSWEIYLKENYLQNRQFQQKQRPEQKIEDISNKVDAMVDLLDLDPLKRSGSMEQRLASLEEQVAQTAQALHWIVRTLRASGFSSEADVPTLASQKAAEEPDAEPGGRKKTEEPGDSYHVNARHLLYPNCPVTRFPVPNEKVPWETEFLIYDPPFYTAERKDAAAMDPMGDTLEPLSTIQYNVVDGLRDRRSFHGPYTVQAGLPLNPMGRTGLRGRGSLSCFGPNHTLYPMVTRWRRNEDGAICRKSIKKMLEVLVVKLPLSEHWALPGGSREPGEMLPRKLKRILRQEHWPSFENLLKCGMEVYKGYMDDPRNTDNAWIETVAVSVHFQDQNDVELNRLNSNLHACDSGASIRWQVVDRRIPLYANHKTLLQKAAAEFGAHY

Ki (T5L-TRPM2; right-shift of ADPR dose response in the presence of 100 μM ε-ADPR, competitive fit, read-out: KI (Kε-ADPR) for binding to native NUDT9H): 112 ± 24 µM | Kd (Chi4S): 111 µM and ≤ 111 µM
Structure (SMILES): O=P(O)(OC[C@H]1OC(O)[C@H](O)[C@@H]1O)OP(=O)(O)OC[C@H]1O[C@@H](n2cnc3c2ncn2ccnc32)[C@H](O)[C@@H]1O (stereo partly drawn) [ε-ADPR, 1, N^6-ethenoadenosine-5’-O-diphosphoribose]
effect on ADPR-evoked TRPM2 currents (T5L-TRPM2; inside-out patch, 1 or 100 μM ADPR): suppressed ADPR-evoked TRPM2 currents in a dose-dependent manner
